The text below walks through data of US9226500B2, “Pesticidal compositions and processes related thereto” (Dow AgroSciences LLC, priority 2012, dated 2016).

Experiment [1] has as its system Cabbage Looper (Trichoplusia ni). Briefly: Bioassay on Cabbage Looper (CL), 128-well diet tray assay. It counts as in vivo. Particulars: 168 h, percent mortality of second instar larvae, 50 μg/cm^2 on artificial diet, five to seven days, 25° C., read-out: CL Rating. The protocol:
Certain molecules disclosed in this document were tested against BAW, CEW and CL using procedures described in the following examples. In the reporting of the results, the “BAW & CEW & CL Rating Table” was used (See Table Section).
Bioassays on CL (Trichoplusia ni)
Bioassays on CL were conducted using a 128-well diet tray assay. One to five second instar CL larvae were placed in each well (3 mL) of the diet tray that had been previously filled with 1 mL of artificial diet to which 50 μg/cm^2 of the test compound (dissolved in 50 μL of 90:10 acetone-water mixture) had been applied (to each of eight wells) and then allowed to dry. Trays were covered with a clear self-adhesive cover, and held at 25° C., 14:10 light-dark for five to seven days. Percent mortality was recorded for the larvae in each well; activity in the eight wells was then averaged.
“Table 4: Assay Results Part 2” (See Table Section).

For experiment [2], the system named is Beet Armyworm (Spodoptera exigua). Briefly: Bioassay on Beet Armyworm (BAW), 128-well diet tray assay. It counts as in vivo. Conditions: for pest or weed control at 50 µg/cm2, 50 µg/cm2: Spodoptera exigua, 168 h, percent mortality of second instar larvae, 50 μg/cm^2 on artificial diet, five to seven days, 25° C., read-out: BAW Rating; for BAW Rating: Table 3, Assays Results Part 1.

On to `C[C@@H](NC(=O)c1ccc(/C=C/C(c2cc(Cl)c(Cl)c(Cl)c2)C(F)(F)F)cc1C(F)(F)F)C(=O)NCC(F)(F)F` (mixture of isomers) [Compound F20], for which the pest or weed control at 50 µg/cm2, 50 µg/cm2 in experiment [1] and in experiment [2] was 50 to 100% throughout.

Turning to `O=C(CC(F)(F)F)NCc1ccc(/C=C\C(c2cc(Cl)c(Cl)c(Cl)c2)C(F)(F)F)cc1` (stereo not drawn) [CC54, (Z)-3,3,3-Trifluoro-N-(4-(4,4,4-trifluoro-3-(3,4,5-trichlorophenyl)but-1-en-1-yl)benzyl)propanamide], the “BAW Rating” value in experiment [2] was “A (50-100)”.

On to `CC(C)(NC(=O)c1ccc(/C=C/C(c2cc(Cl)c(Cl)c(Cl)c2)C(F)(F)F)cc1Cl)C(=O)NCC(F)(F)F` (stereo not drawn) [Compound F2], for which the pest or weed control at 50 µg/cm2, 50 µg/cm2 in experiment [1] and in experiment [2] was 50 to 100% each time.

Turning to `Cc1cc(/C=C/C(c2cc(Cl)c(Cl)c(Cl)c2)C(F)(F)F)ccc1C(=O)NC(C)(C)C(=O)NCC(F)(F)F` (stereo not drawn) [Compound F3], the pest or weed control at 50 µg/cm2, 50 µg/cm2 in experiment [1] and in experiment [2] was 50 to 100% each time.

Take `CC(C)(NC(=O)c1ccc(/C=C/C(c2cc(Cl)c(Cl)c(Cl)c2)C(F)(F)F)cc1C(F)(F)F)C(=O)NCC(F)(F)F` (stereo not drawn) [Compound F4]: the pest or weed control at 50 µg/cm2, 50 µg/cm2 in experiment [1] and in experiment [2] was 50 to 100% throughout.

As for `C[C@H](NC(=O)c1ccc(/C=C/C(c2cc(Cl)c(Cl)c(Cl)c2)C(F)(F)F)cc1Br)C(=O)NCC(F)(F)F` (stereo partly drawn) [Compound F5], the pest or weed control at 50 µg/cm2, 50 µg/cm2 in experiment [1] and in experiment [2] was 50 to 100% each time.

As for `C[C@@H](NC(=O)c1ccc(/C=C/C(c2cc(Cl)c(Cl)c(Cl)c2)C(F)(F)F)cc1Br)C(=O)NCC(F)(F)F` (stereo partly drawn) [Compound F6], the pest or weed control at 50 µg/cm2, 50 µg/cm2 in experiment [1] and in experiment [2] was 50 to 100% each time.

Regarding `Cc1cc(/C=C/C(c2cc(Cl)c(Cl)c(Cl)c2)C(F)(F)F)ccc1C(=O)N[C@H](C)C(=O)NCC(F)(F)F` (stereo partly drawn) [Compound F7], the pest or weed control at 50 µg/cm2, 50 µg/cm2 in experiment [1] and in experiment [2] was 50 to 100% each time.

As to `CCC(NC(=O)c1ccc(/C=C/C(c2cc(Cl)c(Cl)c(Cl)c2)C(F)(F)F)cc1Br)C(=O)NCC(F)(F)F` (stereo not drawn) [Compound F8A], the pest or weed control at 50 µg/cm2, 50 µg/cm2 in experiment [1] and in experiment [2] was 50 to 100% throughout.

On to `CC[C@H](NC(=O)c1ccc(/C=C/C(c2cc(Cl)c(Cl)c(Cl)c2)C(F)(F)F)cc1Br)C(=O)NCC(F)(F)F` (stereo partly drawn) [Compound F8], for which the pest or weed control at 50 µg/cm2, 50 µg/cm2 in experiment [1] and in experiment [2] was 50 to 100% throughout.

Turning to `Cc1cc(/C=C/C(c2cc(Cl)c(Cl)c(Cl)c2)C(F)(F)F)ccc1C(=O)N[C@@H](C)C(=O)NCC(F)(F)F` (stereo partly drawn) [Compound F9], the pest or weed control at 50 µg/cm2, 50 µg/cm2 in experiment [1] and in experiment [2] was 50 to 100% in each case.

As for `CC[C@H](NC(=O)c1ccc(/C=C/C(c2cc(Cl)c(Cl)c(Cl)c2)C(F)(F)F)cc1Cl)C(=O)NCC(F)(F)F` (stereo partly drawn) [Compound F23], the pest or weed control at 50 µg/cm2, 50 µg/cm2 in experiment [1] lay in the range of 50 to 100%.

`FC(F)(F)C(/C=C/c1ccc(-n2cncn2)cc1)c1cc(Cl)cc(Cl)c1` (stereo not drawn) [DC1, (E)-1-(4-(3-(3,5-Dichlorophenyl)-4,4,4-trifluorobut-1-en-1-yl)phenyl)-1H-1,2,4-triazole]: in experiment [2], the “BAW Rating” value is reported as “A (50-100)”.

For the compound `FC(F)(F)C(/C=C/c1ccc(-n2cncn2)cc1)c1ccccc1` (stereo not drawn) [DC3], the “BAW Rating” value in experiment [2] was “B (More than 0-Less than 50)”.

`FC(F)(F)C(/C=C/c1ccc(-n2cncn2)cc1)c1ccc(Cl)cc1` (stereo not drawn) [DC4]: the “BAW Rating” value in experiment [2] is “A (50-100)”.

With `Fc1ccc(C(/C=C/c2ccc(-n3cncn3)cc2)C(F)(F)F)cc1` (stereo not drawn) [DC7], the “BAW Rating” value in experiment [2] is listed as “A (50-100)”.

With `Fc1cc(F)cc(C(/C=C/c2ccc(-n3cncn3)cc2)C(F)(F)F)c1` (stereo not drawn) [DC8], the “BAW Rating” value in experiment [2] is on record as “A (50-100)”.

For the compound `Cc1cc(C)cc(C(/C=C/c2ccc(-n3cncn3)cc2)C(F)(F)F)c1` (stereo not drawn) [DC11], the “BAW Rating” value in experiment [2] is listed as “A (50-100)”.

`FC(F)(F)C(/C=C/c1ccc(-n2cncn2)cc1)c1ccc(Cl)c(Cl)c1` (stereo not drawn) [DC12]: the “BAW Rating” value in experiment [2] is “A (50-100)”.

For the compound `FC(F)(F)c1cc(C(/C=C/c2ccc(-n3cncn3)cc2)C(F)(F)F)cc(C(F)(F)F)c1` (stereo not drawn) [DC16], the “BAW Rating” value in experiment [2] was “A (50-100)”.

As to `COc1c(Cl)cc(C(/C=C/c2ccc(-n3cncn3)cc2)C(F)(F)F)cc1Cl` (stereo not drawn) [DC20], the “BAW Rating” value in experiment [2] is recorded as “A (50-100)”.

For the compound `N#Cc1cc(/C=C/C(c2cc(Cl)cc(C(F)(F)F)c2)C(F)(F)F)ccc1-n1cncn1` (stereo not drawn) [DC33], the “BAW Rating” value in experiment [2] was “A (50-100)”.

On to `COc1c(Cl)cc(C(/C=C/c2ccc(-n3cncn3)c(C#N)c2)C(F)(F)F)cc1Cl` (stereo not drawn) [DC34], for which the “BAW Rating” value in experiment [2] is listed as “A (50-100)”.

`N#Cc1cc(/C=C/C(c2cc(Cl)c(F)c(Cl)c2)C(F)(F)F)ccc1-n1cncn1` (stereo not drawn) [DC35]: in experiment [2], the “BAW Rating” value is listed as “A (50-100)”.

For `N#Cc1cc(/C=C/C(c2cc(Cl)cc(Cl)c2)C(F)(F)F)ccc1-n1cnc([N+](=O)[O-])n1` (stereo not drawn) [DC37], the “BAW Rating” value in experiment [2] was “A (50-100)”.

On to `N#Cc1cc(/C=C/C(c2cc(Cl)cc(Cl)c2)C(F)(F)F)ccc1-n1cnc(N)n1` (stereo not drawn) [DC38], for which, in experiment [2], the “BAW Rating” value is given as “A (50-100)”.

As for `CC(=O)Nc1ncn(-c2ccc(/C=C/C(c3cc(Cl)cc(Cl)c3)C(F)(F)F)cc2C#N)n1` (stereo not drawn) [DC39], the “BAW Rating” value in experiment [2] was “A (50-100)”.

Consider `N#Cc1cc(/C=C/C(c2cc(Cl)c(Cl)c(Cl)c2)C(F)(F)F)ccc1-n1cnc([N+](=O)[O-])n1` (stereo not drawn) [DC40, (E)-2-(3-Nitro-1H-1,2,4-triazol-1-yl)-5-(4,4,4-trifluoro-3-(3,4,5-trichlorophenyl)but-1-en-1-yl)benzonitrile], for which the “BAW Rating” value in experiment [2] is on record as “A (50-100)”.

With `N#Cc1cc(/C=C/C(c2cc(Cl)c(Cl)c(Cl)c2)C(F)(F)F)ccc1-n1cnc(N)n1` (stereo not drawn) [DC41, (E)-2-(3-Amino-1H-1,2,4-triazol-1-yl)-5-(4,4,4-trifluoro-3-(3,4,5-trichlorophenyl)but-1-en-1-yl)benzonitrile], the “BAW Rating” value in experiment [2] was “A (50-100)”.

With `N#Cc1cc(/C=C/C(c2cc(Cl)c(Cl)c(Cl)c2)C(F)(F)F)ccc1-n1cnc(N(C(=O)C2CC2)C(=O)C2CC2)n1` (stereo not drawn) [DC42, (E)-N-(1-(2-Cyano-4-(4,4,4-trifluoro-3-(3,4,5-trichlorophenyl)but-1-en-1-yl)phenyl)-1H-1,2,4-triazol-3-yl)-N-(cyclopropanecarbonyl)cyclopropanecarboxamide], the “BAW Rating” value in experiment [2] was “A (50-100)”.

For the compound `N#Cc1cc(/C=C/C(c2cc(Cl)c(Cl)c(Cl)c2)C(F)(F)F)ccc1-n1cnc(NC(=O)C2CC2)n1` (stereo not drawn) [DC43, (E)-N-(1-(2-Cyano-4-(4,4,4-trifluoro-3-(3,4,5-trichlorophenyl)but-1-en-1-yl)phenyl)-1H-1,2,4-triazol-3-yl)cyclopropanecarboxamide], the “BAW Rating” value in experiment [2] is given as “A (50-100)”.

On to `Cc1cc(/C=C/C(c2cc(Cl)cc(Cl)c2)C(F)(F)F)cc(C#N)c1-n1cncn1` (stereo not drawn) [DC44], for which the “BAW Rating” value in experiment [2] is “A (50-100)”.

`Cc1cc(/C=C/C(c2cc(Cl)c(Cl)c(Cl)c2)C(F)(F)F)cc(C#N)c1-n1cncn1` (stereo not drawn) [DC45]: the “BAW Rating” value in experiment [2] is “A (50-100)”.

For the compound `N#Cc1cc(/C=C\C(c2cc(Cl)c(F)c(Cl)c2)C(F)(F)F)ccc1-n1cncn1` (stereo not drawn) [DC46], the “BAW Rating” value in experiment [2] is “A (50-100)”.

As for `FC(F)(F)C(/C=C/c1ccc(-n2cncn2)c(Br)c1)c1cc(Cl)cc(Cl)c1` (stereo not drawn) [DC47], the “BAW Rating” value in experiment [2] is recorded as “A (50-100)”.

For `Fc1cc(/C=C/C(c2cc(Cl)cc(Cl)c2)C(F)(F)F)ccc1-n1cncn1` (stereo not drawn) [DC48], the “BAW Rating” value in experiment [2] is “A (50-100)”.

For `FC(F)(F)C(/C=C/c1ccc(-n2cncn2)c(Cl)c1)c1cc(Cl)c(Cl)c(Cl)c1` (stereo not drawn) [DC49], the “BAW Rating” value in experiment [2] is on record as “A (50-100)”.

Take `FC(F)(F)C(/C=C/c1ccc(-n2cncn2)c(Cl)c1)c1cc(Cl)cc(Cl)c1` (stereo not drawn) [DC50]: in experiment [2], the “BAW Rating” value is recorded as “A (50-100)”.

As for `FC(F)(F)c1cc(/C=C/C(c2cc(Cl)cc(Cl)c2)C(F)(F)F)ccc1-n1cncn1` (stereo not drawn) [DC51], in experiment [2], the “BAW Rating” value is on record as “A (50-100)”.

Consider `CNc1cc(/C=C/C(c2cc(Cl)cc(Cl)c2)C(F)(F)F)ccc1-n1cncn1` (stereo not drawn) [DC57, (E)-5-(3-(3,5-Dichlorophenyl)-4,4,4-trifluorobut-1-en-1-yl)-N-methyl-2-(1H-1,2,4-triazol-1-yl)aniline], for which, in experiment [2], the “BAW Rating” value is “A (50-100)”.

Turning to `CCOC(=O)c1cc(/C=C/C(c2cc(Cl)cc(Cl)c2)C(F)(F)F)ccc1-n1cncn1` (stereo not drawn) [DC60], the “BAW Rating” value in experiment [2] is recorded as “A (50-100)”.

Take `Cc1cc(/C=C/C(c2cc(Cl)cc(Cl)c2)C(F)(F)F)ccc1-n1cncn1` (stereo not drawn) [DC62]: the “BAW Rating” value in experiment [2] is given as “A (50-100)”.

On to `Cc1cc(/C=C/C(c2cc(Cl)c(Cl)c(Cl)c2)C(F)(F)F)ccc1-n1cncn1` (stereo not drawn) [DC63], for which, in experiment [2], the “BAW Rating” value is reported as “A (50-100)”.

Consider `FC(F)(F)C(/C=C/c1ccc(-n2cncn2)cc1Cl)c1cc(Cl)c(Cl)c(Cl)c1` (stereo not drawn) [DC66], for which the “BAW Rating” value in experiment [2] is recorded as “A (50-100)”.

As for `FC(F)(F)C(/C=C/c1ccc(-n2cncn2)cc1Cl)c1cc(Cl)cc(Cl)c1` (stereo not drawn) [DC67], in experiment [2], the “BAW Rating” value is listed as “A (50-100)”.

For `C/C(=C\C(c1cc(Cl)cc(Cl)c1)C(F)(F)F)c1ccc(-n2cncn2)cc1` (stereo not drawn) [DC68, (E)-1-(4-(4-(3,5-Dichlorophenyl)-5,5,5-trifluoropent-2-en-2-yl)phenyl)-1H-1,2,4-triazole], the “BAW Rating” value in experiment [2] is given as “A (50-100)”.

For the compound `COC(/C=C/c1ccc(-n2cncn2)cc1)(c1cc(Cl)cc(Cl)c1)C(F)(F)F` (stereo not drawn) [DC70, (E)-1-(4-(3-(3,5-Dichlorophenyl)-4,4,4-trifluoro-3-methoxybut-1-en-1-yl)phenyl)-1H-1,2,4-triazole], in experiment [2], the “BAW Rating” value is recorded as “A (50-100)”.
